Here are results for six compounds from US12139492B2 (Endotarget Inc., priority 2021, dated 2024).

The structures appear in SMILES notation. Bounds are passed on as bounds.

Broadly, the DC50 is the midpoint of the concentration-degradation curve. As usually defined, the Dmax is the greatest extent of degradation seen.

Test [1] relates to JeKo-1 cells. As to the kind of experiment: Antiproliferative effect, MTS cell viability assay, JeKo-1 cells. The class given is cell-based. The conditions noted are these: Homo sapiens; JeKo-1 mantle cell lymphoma cells; read-out: IC50 (anti-proliferation) JeKO-1 cells. A digest of the protocol:
(§1)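 Tested at six concentrations (0 to 10 μM in tenfold steps), 72 h; viability by MTS, A490.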

The target in test [2] is BTK (Homo sapiens, UniProt Q06187). Kind of test: Degradation of BTK protein in Namalwa cells (Western blot; DC50, Dmax). The note with it: for DC50: read-out: DC50 (BTK degradation), concentration giving 50% reduction of BTK expression level, cell line not given; for Dmax: read-out: Dmax (BTK degradation). Background: Immunoblotting shows a protein as a band on a membrane.
Chain of BTK (Q06187 whole entry): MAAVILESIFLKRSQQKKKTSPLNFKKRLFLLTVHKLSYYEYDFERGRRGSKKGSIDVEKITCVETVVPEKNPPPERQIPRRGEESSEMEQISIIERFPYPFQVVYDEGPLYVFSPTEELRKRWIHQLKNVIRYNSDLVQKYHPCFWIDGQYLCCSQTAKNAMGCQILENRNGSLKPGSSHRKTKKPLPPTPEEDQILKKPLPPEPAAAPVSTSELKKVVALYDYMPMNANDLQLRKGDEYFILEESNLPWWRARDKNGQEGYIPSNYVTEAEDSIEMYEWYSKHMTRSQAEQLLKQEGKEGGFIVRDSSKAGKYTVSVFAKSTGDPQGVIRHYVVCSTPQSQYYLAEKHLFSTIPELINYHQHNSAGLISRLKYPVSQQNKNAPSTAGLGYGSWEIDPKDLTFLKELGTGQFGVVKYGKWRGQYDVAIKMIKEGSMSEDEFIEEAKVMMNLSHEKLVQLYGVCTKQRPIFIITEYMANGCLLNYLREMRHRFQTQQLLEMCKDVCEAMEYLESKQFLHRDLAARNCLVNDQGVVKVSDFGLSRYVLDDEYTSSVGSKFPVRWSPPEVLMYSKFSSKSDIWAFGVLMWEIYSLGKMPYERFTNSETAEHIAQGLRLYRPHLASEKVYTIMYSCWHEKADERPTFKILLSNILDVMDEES

The subject of test [3] is Mino cells. Kind of test: Antiproliferative effect, MTS cell viability assay, Mino cells. The class given is cell-based. The note with it: Homo sapiens, MINO, Mino mantle cell lymphoma cells; read-out: IC50 (anti-proliferation) Mino cells. The procedure, abridged:
as §1

For `Nc1ncnc2c1c(-c1ccc(Oc3ccccc3)cc1)nn2C1CCN(C[C@@H]2CCN(CC3CN(c4ccc5c(c4)C(=O)N(C4CCC(=O)NC4=O)C5=O)C3)C2)CC1` (stereo partly drawn) [Compound 423b, 5-(3-(((S)-3-((4-(4-amino-3-(4-phenoxyphenyl)-1H-pyrazolo[3,4-d]pyrimidin-1-yl)piperidin-1-yl)methyl)pyrrolidin-1-yl)methyl)azetidin-1-yl)-2-(2,6-dioxopiperidin-3-yl)isoindoline-1,3-dione], the values for the IC50 in test [1] and in test [3] were 1000 to 10000 nM and < 1000 nM, respectively. Also, the DC50 in test [2] is 10 to 50 nM. In test [2], the Dmax was > 90%.

As to `Nc1ncnc2c1c(-c1ccc(Oc3ccccc3)cc1)nn2C1CCN(CC2CCN(CC3CN(c4ccc5c(c4)CN(C4CCC(=O)NC4=O)C5=O)C3)C2)CC1` (stereo not drawn) [Compound 424, 3-(5-(3-((3-((4-(4-amino-3-(4-phenoxyphenyl)-1H-pyrazolo[3,4-d]pyrimidin-1-yl)piperidin-1-yl)methyl)pyrrolidin-1-yl)methyl)azetidin-1-yl)-1-oxoisoindolin-2-yl)piperidine-2,6-dione], the IC50 in test [1] is < 1000 nM. Further, in test [2], the 50% degradation concentration (DC50) lay within 10 to 50 nM and the greatest degradation seen (Dmax) was > 90%. Also, the IC50 in test [3] was < 1000 nM.

With `Nc1ncnc2c1c(-c1ccc(Oc3ccccc3)cc1)nn2C1CCN([C@@H]2CCN(CC3CN(c4ccc5c(c4)C(=O)N(C4CCC(=O)NC4=O)C5=O)C3)C2)CC1` (stereo partly drawn) [Compound 425a, 5-(3-(((R)-3-(4-(4-amino-3-(4-phenoxyphenyl)-1H-pyrazolo[3,4-d]pyrimidin-1-yl)piperidin-1-yl)pyrrolidin-1-yl)methyl)azetidin-1-yl)-2-(2,6-dioxopiperidin-3-yl)isoindoline-1,3-dione], the IC50 in test [1] and in test [3] was 1000 to 10000 nM each time. In addition, the DC50 in test [2] was 10 to 50 nM. Besides, in test [2], the greatest degradation seen (Dmax) is > 90%.

For the compound `Nc1ncnc2c1c(-c1ccc(Oc3ccccc3)cc1)nn2C1CCN([C@H]2CCN(CC3CN(c4ccc5c(c4)C(=O)N(C4CCC(=O)NC4=O)C5=O)C3)C2)CC1` (stereo partly drawn) [Compound 425b, 5-(3-(((S)-3-(4-(4-amino-3-(4-phenoxyphenyl)-1H-pyrazolo[3,4-d]pyrimidin-1-yl)piperidin-1-yl)pyrrolidin-1-yl)methyl)azetidin-1-yl)-2-(2,6-dioxopiperidin-3-yl)isoindoline-1,3-dione], the IC50 in test [1] and in test [3] was 1000 to 10000 nM each time. Also, in test [2], the Dmax was > 90%.

As for `Nc1ncnc2c1c(-c1ccc(Oc3ccccc3)cc1)nn2C1CCN(C2CCN(CC3CN(c4ccc5c(c4)CN(C4CCC(=O)NC4=O)C5=O)C3)C2)CC1` (stereo not drawn) [Compound 426, 3-(5-(3-((3-(4-(4-amino-3-(4-phenoxyphenyl)-1H-pyrazolo[3,4-d]pyrimidin-1-yl)piperidin-1-yl)pyrrolidin-1-yl)methyl)azetidin-1-yl)-1-oxoisoindolin-2-yl)piperidine-2,6-dione], the IC50 in test [1] is < 1000 nM. In addition, in test [2], the DC50 was in the range of 10 to 50 nM and the Dmax is > 90%. In addition, the IC50 in test [3] is < 1000 nM.

As for `Nc1ncnc2c1c(-c1ccc(Oc3ccccc3)cc1)nn2C1CCN(CC2CCN(CC3CN(CC4CN(c5ccc6c(c5)C(=O)N(C5CCC(=O)NC5=O)C6=O)C4)C3)C2)CC1` (stereo not drawn) [Compound 427, 5-(3-((3-((3-((4-(4-amino-3-(4-phenoxyphenyl)-1H-pyrazolo(3,4-d)pyrimidin-1-yl)piperidin-1-yl)methyl)pyrrolidin-1-yl)methyl)azetidin-1-yl)methyl)azetidin-1-yl)-2-(2,6-dioxopiperidin-3-yl)isoindoline-1,3-dione], the IC50 in test [1] was in the range of 1000 to 10000 nM. Also, the “degradation of BTK protein” value in test [2] (Namalwa B lymphocyte cells, various concentrations, 24 hours, Western blot) was “dose-dependent degradation”. In addition, in test [2], the DC50 was > 50 nM and the Dmax was > 90%. Also, the IC50 in test [3] is 1000 to 10000 nM.
